Measured values from patent publication US9993492B2, “Lysophospholipids and lysophospholipid analogues against honeybee brood diseases” (University of Graz, priority 2013, dated 2018).
Read-outs that look alike come from different tables or passages of the source.

How the values were obtained:
Melissococcus plutonius = assay: Antimicrobial assay in liquid Basal Medium against Melissococcus plutonius (MIC); format: cell-based; settings: Melissococcus plutonius
Experimental: M. pl. was cultured in liquid Basal Medium (BM) for 4 days at 35° C. and from here serial dilutions were carried out to estimate CFU/ml by plating onto BM agar plates. 5 days later CFU were count and concentration was estimated to be 3.46*10^6 CFU/ml. For the antimicrobial assay, an inoculum of 50 μl of the liquid culture is added to 1 mL of BM liquid medium. A set of different substances were tested in different concentrations (2, 5 and 10 ppm) in order to find out their inhibitory effect against M. pl growth. For substances tested, concentration applied and results see table 1.2. Three replicates per substance were included in the experiment. 5 days after the experiment was started OE (optical extinction) was measured at 600 nm.

Pl-infected larvae = assay: In vivo effect of LPC on Pl-infected larvae; parameters: species or system Apis mellifera; settings: LPC 10 μg/larva on day 1, 2 and 3 + 50 spores/larva (ERIC II, strain 233/00) on day 1, replicates separated by /, Nlarvae 71/48/48
Experimental: First instar larvae were transferred into plastic queen cups and fed the following diets: On the first day 10 μL of diet containing 6% glucose, 6% fructose, 1% yeast extract and 50% royal jelly were fed. Test substances (1-O-oleoyl-sn-glycero-3-phosphocholine (oleoyl-LPC), stearic acid, lysophosphatidylinositol and linoleic acid) were added to the first diet in amounts of 0.5 to 10 μg/larvae. For infection with spores of Paenibacillus larvae, larvae were grafted into 5 μL of diet containing test substances and subsequently 5 μL of diet with about 50 added Pl spores were given. Larvae were not fed on the second day to assure the consumption of the given diet. On the third day 20 μL of diet containing 7.5% glucose, 7.5% fructose, 1.5% yeast extract and 50% royal jelly were fed. Amounts of 30, 40 and 60 μL of diet composed of 9% glucose, 9% fructose, 2% yeast extract and 50% royal jelly were fed on the 4th, 5th and 6th day (method modified after Aupinel et al. [Aupinel et al. 2005. Bull Insectol 58:107-111]. Larvae were incubated at 34.5° C. and 95% relative humidity which was reduced to 80% on day 7. The mortality was checked daily for the first 7 days and when individuals emerged from queen cups at day 18 after the transfer into cups. To reduce the time for sporulation of Pl in the lab for security reasons, infection tests with Pl spores were stopped at day 7 with some experiments extend to day 12.
In vivo effect of LPC on Pl-infected larvae: Artificial larval rearing was performed as described above. Larvae were individually infected with a dose of c. 50 spores/larva (ERIC II, strain 233/00) given on the first day. LPC was administered on day 1, 2 and 3 in a dose of 10 μg/d. Mortality was checked daily until d 12.

SMILES: CCCCCCCC/C=C\CCCCCCCC(=O)OC[C@@H](O)COP(=O)([O-])OCC[N+](C)(C)C [1-O-oleoyl-sn-glycero-3-phosphocholine]
- MIC (Melissococcus plutonius; 120 h, M. pl. in BM liquid medium, OE at 600 nm after 5 days, read-out: MIC): > 3.8 µM
- MIC (Melissococcus plutonius; 120 h, M. pl. in BM liquid medium, OE at 600 nm after 5 days, read-out: MIC (ppm)): 2 µg/mL
- MIC (Melissococcus plutonius; read-out: in vitro M. pl. inhibitory activity, MIC): 2.5 µg/mL
- Ndead larvae total (Pl-infected larvae; days 1-12): 26/12/14
- Ndead larvae day 1 (Pl-infected larvae): 0/0/0
- Ndead larvae day 2 (Pl-infected larvae): 1/0/0
- Ndead larvae day 3 (Pl-infected larvae): 3/2/4
- Ndead larvae day 4 (Pl-infected larvae): 11/5/8
- Ndead larvae day 5 (Pl-infected larvae): 7/2/0
- Ndead larvae day 6 (Pl-infected larvae): 1/1/1
- Ndead larvae day 7 (Pl-infected larvae): 1/1/0
- Ndead larvae day 8 (Pl-infected larvae): 0/0/1
- Ndead larvae day 9 (Pl-infected larvae): 0/0/0
- Ndead larvae day 10 (Pl-infected larvae): 2/0/0
- Ndead larvae day 11 (Pl-infected larvae): 0/1/0
- Ndead larvae day 12 (Pl-infected larvae): 0/0/0
